Reference: PubChem BioAssay AID280 (DTP/NCI, 2004)
Toxic doses and inconclusive results are not listed.

Tested on: nude mice, LOX melanoma ip, survival T/C
Test: NCI In Vivo Anticancer Drug Screen. Data for tumor model Human Amelanotic Melanoma (LOX) (intraperitoneal) in NU/NU BALB/C (nude) mice
Settings: endpoint: median survival time, higher = longer survival
Experimental: The antitumor activity of compounds was measured in mice bearing transplantable tumors. Survival or tumor size were measured and the results are expressed as the measurement made in the treated group (T) divided by the measurement made in the vehicle treated control group (C). The tumor model used in this assay is Human Amelanotic Melanoma (LOX) (intraperitoneal) in NU/NU BALB/C (nude) mice

[1] = dose: 75.0 mg/kg/injection, schedule: Q04DX003 (ip), vehicle: saline with Tween-80
[2] = dose: 150.0 mg/kg/injection, schedule: Q04DX003 (ip), vehicle: saline with Tween-80
[3] = dose: 300.0 mg/kg/injection, schedule: Q04DX003 (ip), vehicle: saline with Tween-80
[4] = dose: 600.0 mg/kg/injection, schedule: Q04DX003 (ip), vehicle: saline with Tween-80
[5] = dose: 18.75 mg/kg/injection, schedule: Q04DX003 (ip), vehicle: saline with Tween-80

`O=c1[nH]cnc2c1cnn2CN1CCOCC1` was tested, and the T/C (dose: 25.0 mg/kg/injection, schedule: Q04DX003 (ip), vehicle: Klucel (hydroxypropylcellulose) (HPC)) was 93 % of control, the T/C (dose: 50.0 mg/kg/injection, schedule: Q04DX003 (ip), vehicle: Klucel (hydroxypropylcellulose) (HPC)) was 123 % of control and the T/C (dose: 100.0 mg/kg/injection, schedule: Q04DX003 (ip), vehicle: Klucel (hydroxypropylcellulose) (HPC)) was 109 % of control.

In the case of `O=c1cc(-c2ccccc2)[nH]c2c1CCCC2`, the T/C [1] is reported as 115 % of control, the T/C [2] is reported as 115 % of control and the T/C (dose: 259.0 mg/kg/injection, schedule: Q04DX003 (ip), vehicle: saline with Tween-80) is reported as 106 % of control. The T/C [3] was 114 % of control, the T/C (dose: 432.0 mg/kg/injection, schedule: Q04DX003 (ip), vehicle: saline with Tween-80) was 100 % of control and the T/C [4] was 124 % of control. For the same compound, the T/C (dose: 720.0 mg/kg/injection, schedule: Q04DX003 (ip), vehicle: saline with Tween-80) was 114 % of control.

For `O=C1CN(CCN2CC(=O)N(CN3CCOCC3)C(=O)C2)CC(=O)N1CN1CCOCC1`, the T/C [5] was 98 % of control, the T/C (dose: 37.5 mg/kg/injection, schedule: Q04DX003 (ip), vehicle: saline with Tween-80) was 120 % of control and the T/C (dose: 37.5 mg/kg/injection, schedule: Q04DX003 (ip), vehicle: water) was 88 % of control. For the same compound, the T/C [1] was 108 % of control, the T/C (dose: 75.0 mg/kg/injection, schedule: Q04DX003 (ip), vehicle: water) was 102 % of control and the T/C (dose: 150.0 mg/kg/injection, schedule: Q04DX003 (ip), vehicle: water) was 101 % of control.

In the case of `O=C1CN(c2ccccc2)C(=O)C1C(=O)Nc1ccc(Cl)c(Cl)c1` (configuration not stated), the T/C (dose: 120.0 mg/kg/injection, schedule: Q04DX003 (ip), vehicle: saline with Tween-80) is reported as 115 % of control.

For `CC(=O)C[n+]1ccc(C)cc1Sc1ccccc1C`, the T/C (dose: 12.5 mg/kg/injection, schedule: Q04DX003 (ip), vehicle: saline with Tween-80) was 93 % of control, the T/C (dose: 25.0 mg/kg/injection, schedule: Q04DX003 (ip), vehicle: saline with Tween-80) was 99 % of control and the T/C (dose: 50.0 mg/kg/injection, schedule: Q04DX003 (ip), vehicle: saline with Tween-80) was 95 % of control. The T/C (dose: 100.0 mg/kg/injection, schedule: Q04DX003 (ip), vehicle: saline with Tween-80) was 88 % of control.

With `Nc1ccn([C@@H]2C=C(CO)[C@@H](O)[C@H]2O)c(=O)n1` the T/C (dose: 1.0 mg/kg/injection, schedule: Q01DX009 (ip), vehicle: saline) was 219 % of control.

With `COc1cc2c[n+](C)c3c(c2cc1OC)Cc1cc2c(cc1-3)OCO2` the T/C [5] was 108 % of control and the T/C [2] was 201 % of control.

For `CCCCCCCC(=O)O[C@H]1[C@H]2[C@@H](CC1(C)C)C(=O)[C@]13O[C@H]1C(=O)[C@]1(CO1)[C@]23C`, the T/C (dose: 2.5 mg/kg/injection, schedule: Q04DX003 (ip), vehicle: saline with Tween-80) was 115 % of control, the T/C (dose: 5.0 mg/kg/injection, schedule: Q04DX003 (ip), vehicle: saline with Tween-80) was 92 % of control and the T/C (dose: 10.0 mg/kg/injection, schedule: Q04DX003 (ip), vehicle: saline with Tween-80) was 90 % of control. The T/C (dose: 20.0 mg/kg/injection, schedule: Q04DX003 (ip), vehicle: saline with Tween-80) was 103 % of control and the T/C (dose: 40.0 mg/kg/injection, schedule: Q04DX003 (ip), vehicle: saline with Tween-80) was 92 % of control.

For `CCN(CC)c1ccc2[nH]c3c(C(N)=O)cc(=O)c(=O)c=3oc2c1`, the T/C [2] was 110 % of control and the T/C [3] was 96 % of control.

In the case of `CCOC(=O)C1=C(Nc2ccc(OC)cc2)C(N)=NC1=N`, the T/C (dose: 50.0 mg/kg/injection, schedule: Q04DX003 (ip), vehicle: suspension in saline) is reported as 107 % of control and the T/C (dose: 100.0 mg/kg/injection, schedule: Q04DX003 (ip), vehicle: suspension in saline) is reported as 107 % of control.

`CO[C@@]12[C@@H]3N[C@@H]3CN1C1=C(C(=O)C(NCC3CCCO3)=C(C)C1=O)[C@@H]2COC(N)=O` (some centres not stated) was tested, and the T/C (dose: 12.5 mg/kg/injection, schedule: Q04DX003 (ip), vehicle: distilled water + Tween-80) was 154 % of control, the T/C (dose: 25.0 mg/kg/injection, schedule: Q04DX003 (ip), vehicle: distilled water + Tween-80) was 160 % of control and the T/C (dose: 50.0 mg/kg/injection, schedule: Q04DX003 (ip), vehicle: distilled water + Tween-80) was 215 % of control.

`COC1CC2C=C(C)/C=C/C=C/C(=O)NC(c3ccccc3)C/C=C/CCC(O)CC(=O)C2=C1O` (configuration not stated) was tested, and the T/C (dose: 18.75 mg/kg/injection, schedule: Q04DX003 (ip), vehicle: Klucel (hydroxypropylcellulose) (HPC)) was 112 % of control and the T/C (dose: 37.5 mg/kg/injection, schedule: Q04DX003 (ip), vehicle: Klucel (hydroxypropylcellulose) (HPC)) was 187 % of control.

In the case of `O=C(Nc1cccc(Cl)c1)ON1C(=O)C2C(C1=O)C1(Cl)C(Cl)C(Cl)C2(Cl)C1(Cl)Cl` (configuration not stated), the T/C [1] is reported as 99 % of control, the T/C [2] is reported as 86 % of control and the T/C [3] is reported as 90 % of control. For the same compound, the T/C [4] was 101 % of control.
